{"source": "the supplement of paper PMC10307832", "experiment_in_all_cases": "relative viability (nuclei count vs DMSO), 5 days (fraction); higher = more cells survive", "key": {"Lestaurtinib + Alpelisib": {"compound": "C[C@]12O[C@H](C[C@]1(O)CO)n1c3ccccc3c3c4c(c5c6ccccc6n2c5c31)CNC4=O [Lestaurtinib] + Cc1nc(NC(=O)N2CCC[C@H]2C(N)=O)sc1-c1ccnc(C(C)(C)C(F)(F)F)c1 [Alpelisib] (partner 2 µM)", "in_short": "(§1)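 Lung cancer cell lines, seeded in 1536-well plates, were treated the following day by pin tool with a single drug or with five library-drug doses (not always all listed) in √10 steps on top of a fixed anchor-drug dose. Cells were fixed and nuclei stained in one step after 5 days, and nuclei were counted. Relative viability is the nuclei count for treated wells divided by that for vehicle wells, reported as medians of duplicate plates.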"}, "Lestaurtinib + OSI-027": {"compound": "C[C@]12O[C@H](C[C@]1(O)CO)n1c3ccccc3c3c4c(c5c6ccccc6n2c5c31)CNC4=O [Lestaurtinib] + COc1cccc2cc(-c3nc([C@H]4CC[C@H](C(=O)O)CC4)n4ncnc(N)c34)[nH]c12 [OSI-027] (partner 0.5 µM)", "in_short": "as §1"}, "[1]": {"compound": "C[C@]12O[C@H](C[C@]1(O)CO)n1c3ccccc3c3c4c(c5c6ccccc6n2c5c31)CNC4=O [Lestaurtinib] + O=C(CCCCCCC(=O)Nc1ccccc1)NO [Vorinostat] (partner 1 µM)", "in_short": "as §1"}, "[2]": {"compound": "C1/C(=C\\C2=CC=CS2)/C(=O)/C(=C/C3=CC=CS3)/C1 + Cc1cc(Nc2cc(N3CCN(C)CC3)nc(Sc3ccc(NC(=O)C4CC4)cc3)n2)n[nH]1 [Tozasertib] (partner 0.1 µM)", "in_short": "as §1"}}}
{"cell line": "UMC-11", "values": [{"measurement": "relative viability", "setting": "Lestaurtinib + Alpelisib; first compound 0.005 µM", "result": 0.967}, {"measurement": "relative viability", "setting": "Lestaurtinib + Alpelisib; first compound 0.01581 µM", "result": 0.968}, {"measurement": "relative viability", "setting": "Lestaurtinib + Alpelisib; first compound 0.05 µM", "result": 0.471}, {"measurement": "relative viability", "setting": "Lestaurtinib + Alpelisib; first compound 0.1581 µM", "result": 0.297}, {"measurement": "relative viability", "setting": "Lestaurtinib + Alpelisib; first compound 0.5 µM", "result": 0.156}, {"measurement": "relative viability", "setting": "Lestaurtinib + OSI-027; first compound 0.005 µM", "result": 0.48}, {"measurement": "relative viability", "setting": "Lestaurtinib + OSI-027; first compound 0.01581 µM", "result": 0.385}, {"measurement": "relative viability", "setting": "Lestaurtinib + OSI-027; first compound 0.05 µM", "result": 0.293}, {"measurement": "relative viability", "setting": "Lestaurtinib + OSI-027; first compound 0.1581 µM", "result": 0.283}, {"measurement": "relative viability", "setting": "Lestaurtinib + OSI-027; first compound 0.5 µM", "result": 0.177}, {"measurement": "relative viability", "setting": "[1]; first compound 0.005 µM", "result": 0.367}, {"measurement": "relative viability", "setting": "[1]; first compound 0.01581 µM", "result": 0.36}, {"measurement": "relative viability", "setting": "[1]; first compound 0.05 µM", "result": 0.323}, {"measurement": "relative viability", "setting": "[1]; first compound 0.1581 µM", "result": 0.182}, {"measurement": "relative viability", "setting": "[1]; first compound 0.5 µM", "result": 0.118}, {"measurement": "relative viability", "setting": "[2]; first compound 0.2 µM", "result": 0.204}, {"measurement": "relative viability", "setting": "[2]; first compound 0.6325 µM", "result": 0.192}, {"measurement": "relative viability", "setting": "[2]; first compound 2 µM", "result": 0.212}, {"measurement": "relative viability", "setting": "[2]; first compound 6.325 µM", "result": 0.202}, {"measurement": "relative viability", "setting": "[2]; first compound 20 µM", "result": 0.205}]}
